How the values were obtained:
Assay in all cases: NCI 60 single concentration growth inhibition
Assay type in all cases: cell-based, human
SK-MEL-2 = details: SK-MEL-2, Melanoma; for inhibition at 10 µM: Homo sapiens, read-out: GI%
Experimental: (§1) The synthesized dichlorobenzimidazoles 10a–p were assayed for their influence on divers cancer cell lines according to the method presented in the Additional file A.
(§2) 5. Screening of cytotoxic activity against a panel of sixty human tumor cell lines
(§3) The selected compounds by NCI were evaluated for their anticancer activity in a two-stage process. First, these compounds were screened against the full NCI 60 cell lines panel at a single high dose of 10 µM. Then, the output from the single dose screen is reported as a mean graph. […]
(§4) at five different minimal concentrations.
(§5) Assay protocol. The human tumor cell lines of the cancer screening panel are grown in RPMI 1640 medium containing 5% fetal bovine serum and 2 mM L-glutamine. For a typical screening experiment, cells are inoculated into 96 well microtiter plates in 100 µL at plating densities ranging from 5000 to 40,000 cells/well depending on the doubling time of individual cell lines. After cell inoculation, the microtiter plates are incubated at 37 °C, 5% CO 2, 95% air and 100% relative humidity for 24 h prior to addition of the experimental drugs.
(§6) After 24 h, two plates of each cell line are fixed in situ with TCA, to represent a measurement of the cell population for each cell line at the time of drug addition (Tz). The experimental drugs are solubilized in dimethyl sulfoxide at 400-fold the desired final maximum test concentration and stored frozen prior to use. At the time of drug addition, an aliquot of frozen concentrate is thawed and diluted to twice the desired final maximum test concentration with complete medium containing 50 µg/mL gentamicin. Additional four, 10-fold or ½ log serial dilutions are made to provide a total of five drug concentrations plus control.
(§7) Aliquots of […] of these different drug dilutions are added to the appropriate microtiter wells already containing […] of medium, resulting in the required final drug concentrations.
(§8) Following drug addition, the plates are incubated for an additional 48 h at 37 °C, 5% CO 2, 95% air, and 100% relative humidity. For adherent cells, the assay is terminated by the addition of cold TCA.
(§9) Cells are fixed in situ by the gentle addition of 50 µL of cold 50% (w/v) TCA (final concentration, 10% TCA) and incubated for 60 min at 4 °C. The supernatant is discarded, and the plates are washed five times with tap water and air dried. Sulforhodamine B (SRB) solution ([…]) at 0.4% (w/v) in 1% acetic acid is added to each well, and plates are incubated for 10 min at room temperature. After staining, unbound dye is removed by washing five times with 1% acetic acid and the plates are air dried. Bound stain is subsequently solubilized with 10 mM trizma base, and the absorbance is read on an automated plate reader at a wavelength of 515 nm. For suspension cells, the methodology is […]
(§10) the same except that the assay is terminated by fixing settled cells at the bottom of the wells by gently adding 50 µl of 80% TCA (final concentration, 16% TCA). Using the seven absorbance measurements [time zero, (Tz), control growth, (C), and test growth in the presence of drug at the five concentration levels (Ti)], the percentage growth is calculated at each of the drug concentrations […]
(§11) Percentage growth inhibition is calculated as: [(Ti Tz)/(C–Tz)] x 100 for concentrations for which Ti>/=Tz and [(Ti-Tz)/Tz] x 100 for concentrations for which Ti < Tz.
(§12) Three dose response parameters are calculated for each experimental agent. Growth […]
(§13) concentration resulting in a 50% reduction in the net protein increase (as measured by SRB staining) in control cells during the drug incubation. The drug concentration resulting in total growth inhibition (TGI) is calculated from Ti = Tz. […]
(§14) reduction in the measured protein at the end of the drug treatment as compared to that at the beginning) indicating a net loss of cells following treatment is calculated from [(Ti–Tz)/Tz] x 100 =
(§15) _50. Values are calculated for each of these three parameters if the level of activity is reached; […]

SF-268 = details: SF-268, CNS cancer; for inhibition at 10 µM: Homo sapiens, read-out: GI%
Experimental: as §1, §2, §3, §4, §5, §6, §7, §8, §9, §10, §11, §12, §13, §14, §15

786-0 = details: 786-0, Renal cancer; for inhibition at 10 µM: Homo sapiens, read-out: GI%
Experimental: as §1, §2, §3, §4, §5, §6, §7, §8, §9, §10, §11, §12, §13, §14, §15

OVCAR-5 = details: OVCAR-5, Ovarian cancer; for inhibition at 10 µM: Homo sapiens, read-out: GI%
Experimental: as §1, §2, §3, §4, §5, §6, §7, §8, §9, §10, §11, §12, §13, §14, §15

SK-MEL-5 = details: SK-MEL-5, Melanoma; for inhibition at 10 µM: Homo sapiens, read-out: GI%
Experimental: as §1, §2, §3, §4, §5, §6, §7, §8, §9, §10, §11, §12, §13, §14, §15

HS 578T = details: Breast cancer; for inhibition at 10 µM: Homo sapiens, read-out: GI%
Experimental: as §1, §2, §3, §4, §5, §6, §7, §8, §9, §10, §11, §12, §13, §14, §15

MOLT-4 = details: MOLT-4, Leukemia; for inhibition at 10 µM: Homo sapiens, read-out: GI%
Experimental: as §1, §2, §3, §4, §5, §6, §7, §8, §9, §10, §11, §12, §13, §14, §15

MDA-MB-435 = details: MDA-MB-435, Melanoma; for inhibition at 10 µM: Homo sapiens, read-out: GI%
Experimental: as §1, §2, §3, §4, §5, §6, §7, §8, §9, §10, §11, §12, §13, §14, §15

SK-MEL-28 = details: SK-MEL-28, Melanoma; for inhibition at 10 µM: Homo sapiens, read-out: GI%
Experimental: as §1, §2, §3, §4, §5, §6, §7, §8, §9, §10, §11, §12, §13, §14, §15

M14 = details: M14, Melanoma; for inhibition at 10 µM: Homo sapiens, read-out: GI%
Experimental: as §1, §2, §3, §4, §5, §6, §7, §8, §9, §10, §11, §12, §13, §14, §15

RXF 393 = details: RXF 393, Renal cancer; for inhibition at 10 µM: Homo sapiens, read-out: GI%
Experimental: as §1, §2, §3, §4, §5, §6, §7, §8, §9, §10, §11, §12, §13, §14, §15

NCI-H226 = details: NCI-H226, Non-small cell lung cancer; for inhibition at 10 µM: Homo sapiens, read-out: GI%
Experimental: as §1, §2, §3, §4, §5, §6, §7, §8, §9, §10, §11, §12, §13, §14, §15

MDA-MB-231/ATCC = details: Breast cancer; for inhibition at 10 µM: Homo sapiens, read-out: GI%
Experimental: as §1, §2, §3, §4, §5, §6, §7, §8, §9, §10, §11, §12, §13, §14, §15

MCF7 = details: MCF7, Breast cancer; for inhibition at 10 µM: Homo sapiens, read-out: GI%
Experimental: as §1, §2, §3, §4, §5, §6, §7, §8, §9, §10, §11, §12, §13, §14, §15

KM12 = details: KM12, Colon cancer; for inhibition at 10 µM: Homo sapiens, read-out: GI%
Experimental: as §1, §2, §3, §4, §5, §6, §7, §8, §9, §10, §11, §12, §13, §14, §15

T-47D = details: Breast cancer; for inhibition at 10 µM: Homo sapiens, T47D, read-out: GI%
Experimental: as §1, §2, §3, §4, §5, §6, §7, §8, §9, §10, §11, §12, §13, §14, §15

HCT-116 = details: HCT-116, Colon cancer; for inhibition at 10 µM: Homo sapiens, read-out: GI%
Experimental: as §1, §2, §3, §4, §5, §6, §7, §8, §9, §10, §11, §12, §13, §14, §15

SF-539 = details: SF-539, CNS cancer; for inhibition at 10 µM: Homo sapiens, read-out: GI%
Experimental: as §1, §2, §3, §4, §5, §6, §7, §8, §9, §10, §11, §12, §13, §14, §15

A549/ATCC = details: Non-small cell lung cancer; for inhibition at 10 µM: Homo sapiens, read-out: GI%
Experimental: as §1, §2, §3, §4, §5, §6, §7, §8, §9, §10, §11, §12, §13, §14, §15

CCRF-CEM = details: Leukemia; for inhibition at 10 µM: Homo sapiens, read-out: GI%
Experimental: as §1, §2, §3, §4, §5, §6, §7, §8, §9, §10, §11, §12, §13, §14, §15

OVCAR-8 = details: OVCAR-8, Ovarian cancer; for inhibition at 10 µM: Homo sapiens, read-out: GI%
Experimental: as §1, §2, §3, §4, §5, §6, §7, §8, §9, §10, §11, §12, §13, §14, §15

SR = details: Homo sapiens, Leukemia, read-out: GI%
Experimental: as §1, §2, §3, §4, §5, §6, §7, §8, §9, §10, §11, §12, §13, §14, §15

Compound: 3-(4-((2-(2-(5,6-Dichloro-2-(4-methoxyphenyl)-1H-benzo[d]imidazol-1-yl)acetyl)hydrazono)methyl)phenoxy)propanoic acid [Compound 10i]
- GI% (SK-MEL-2; 10 μM): – (GI% < 5%)
- GI% (SF-268; 10 μM): – (GI% < 5%)
- GI% (786-0; 10 μM): 5.33%
- GI% (OVCAR-5; 10 μM): – (GI% < 5%)
- GI% (SK-MEL-5; 10 μM): 14.39%
- GI% (HS 578T; 10 μM): – (GI% < 5%)
- GI% (MOLT-4; 10 μM): – (GI% < 5%)
- GI% (MDA-MB-435; 10 μM): 7.59%
- GI% (SK-MEL-28; 10 μM): – (GI% < 5%)
- GI% (M14; 10 μM): – (GI% < 5%)
- GI% (RXF 393; 10 μM): – (GI% < 5%)
- GI% (NCI-H226; 10 μM): 23.02%
- GI% (MDA-MB-231/ATCC; 10 μM): 12.19%
- GI% (MCF7; 10 μM): 28.47%
- GI% (KM12; 10 μM): – (GI% < 5%)
- GI% (T-47D; 10 μM): 27.22%
- GI% (HCT-116; 10 μM): 11.45%
- GI% (SF-539; 10 μM): – (GI% < 5%)
- GI% (A549/ATCC; 10 μM): – (GI% < 5%)
- GI% (CCRF-CEM; 10 μM): 10.70%
- GI% (OVCAR-8; 10 μM): – (GI% < 5%)

Compound: COc1ccc(-c2nc3cc(Cl)c(Cl)cc3n2CC(=O)NN=Cc2cccc(O)c2)cc1 [Compound 10a, 2-(5,6-Dichloro-2-(4-methoxyphenyl)-1H-benzo[d]imidazol-1-yl)-N'-(3-hydroxybenzylidene)acetohydrazide]
- inhibition at 10 µM (SK-MEL-2): 33.6%
- inhibition at 10 µM (SF-268): 51.5%
- inhibition at 10 µM (786-0): 28.6%
- inhibition at 10 µM (OVCAR-5): 20.5%
- inhibition at 10 µM (SK-MEL-5): 79.7%
- inhibition at 10 µM (HS 578T): 36.9%
- inhibition at 10 µM (MOLT-4): 70.4%
- inhibition at 10 µM (MDA-MB-435): 45.9%
- inhibition at 10 µM (SK-MEL-28): 39.3%
- inhibition at 10 µM (M14): 41.1%
- inhibition at 10 µM (RXF 393): 44.4%
- inhibition at 10 µM (NCI-H226): 43.7%
- inhibition at 10 µM (MDA-MB-231/ATCC): 20%
- inhibition at 10 µM (MCF7): 80.6%
- inhibition at 10 µM (KM12): 41%
- inhibition at 10 µM (T-47D): 69.7%
- inhibition at 10 µM (SR): 42%
- inhibition at 10 µM (HCT-116): 59.6%
- inhibition at 10 µM (SF-539): 36.5%
- inhibition at 10 µM (A549/ATCC): 62.5%
- inhibition at 10 µM (CCRF-CEM): 40.6%
- inhibition at 10 µM (OVCAR-8): 29.5%

Compound: CCOC(=O)C(C)Oc1ccc(C=NNC(=O)Cn2c(-c3ccc(OC)cc3)nc3cc(Cl)c(Cl)cc32)cc1 (stereo not shown) [Compound 10j, Ethyl-2-(4-((2-(2-(5,6-dichloro-2-(4-methoxyphenyl)-1H-benzo[d]imidazol-1-yl)acetyl) hydrazono)methyl)phenoxy)propanoate]
- inhibition at 10 µM (SK-MEL-2): 8.36%
- inhibition at 10 µM (SF-268): 14.3%
- inhibition at 10 µM (786-0): 11.3%
- inhibition at 10 µM (OVCAR-5): < 5%
- inhibition at 10 µM (SK-MEL-5): 25.2%
- inhibition at 10 µM (HS 578T): < 5%
- inhibition at 10 µM (MOLT-4): 53.2%
- inhibition at 10 µM (MDA-MB-435): 24.8%
- inhibition at 10 µM (SK-MEL-28): < 5%
- inhibition at 10 µM (M14): 9.09%
- inhibition at 10 µM (RXF 393): 43.7%
- inhibition at 10 µM (NCI-H226): 7.33%
- inhibition at 10 µM (MDA-MB-231/ATCC): 17.2%
- inhibition at 10 µM (MCF7): 39%
- inhibition at 10 µM (KM12): < 5%
- inhibition at 10 µM (T-47D): 72.8%
- inhibition at 10 µM (HCT-116): 32.3%
- inhibition at 10 µM (SF-539): < 5%
- inhibition at 10 µM (A549/ATCC): < 5%
- inhibition at 10 µM (CCRF-CEM): 25.8%
- inhibition at 10 µM (OVCAR-8): 20.7%

Reference: paper PMC11844072, “Novel 5,6-dichlorobenzimidazole derivatives as dual BRAFWT and BRAFV600E inhibitors: design, synthesis, anti-cancer activity and molecular dynamics simulations” (BMC Chemistry, 2025)
